{"source": "patent US10968215B2", "about": "(SHANGHAI HAIHE PHARMACEUTICAL CO., LTD., priority 2016, dated 2021)", "data": [{"target": "PRC2 complex (EZH2 Y641F/EED/SUZ12/RbAp48/AEBP2) (Homo sapiens (Human), UniProt Q15910, Y641F)", "sequence (Q15910 whole entry Y641F)": "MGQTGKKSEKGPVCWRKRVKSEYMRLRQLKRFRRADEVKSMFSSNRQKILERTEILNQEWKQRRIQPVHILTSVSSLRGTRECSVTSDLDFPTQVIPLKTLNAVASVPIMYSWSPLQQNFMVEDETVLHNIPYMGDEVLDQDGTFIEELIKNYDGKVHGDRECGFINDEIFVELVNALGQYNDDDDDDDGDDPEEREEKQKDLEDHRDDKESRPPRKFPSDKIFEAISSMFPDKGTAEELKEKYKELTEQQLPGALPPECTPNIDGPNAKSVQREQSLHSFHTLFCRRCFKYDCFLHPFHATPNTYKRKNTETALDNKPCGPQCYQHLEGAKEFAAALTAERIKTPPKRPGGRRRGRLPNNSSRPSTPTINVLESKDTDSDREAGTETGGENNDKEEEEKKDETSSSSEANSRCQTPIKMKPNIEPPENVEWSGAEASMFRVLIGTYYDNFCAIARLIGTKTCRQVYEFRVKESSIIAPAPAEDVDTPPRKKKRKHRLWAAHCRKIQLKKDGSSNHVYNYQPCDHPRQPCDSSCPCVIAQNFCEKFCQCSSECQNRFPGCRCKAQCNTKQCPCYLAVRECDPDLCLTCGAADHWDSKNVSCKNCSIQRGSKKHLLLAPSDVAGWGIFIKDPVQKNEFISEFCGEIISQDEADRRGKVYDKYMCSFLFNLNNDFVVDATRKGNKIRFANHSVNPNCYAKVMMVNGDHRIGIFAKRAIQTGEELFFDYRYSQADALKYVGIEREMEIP", "sequence (O75530 whole entry partner)": "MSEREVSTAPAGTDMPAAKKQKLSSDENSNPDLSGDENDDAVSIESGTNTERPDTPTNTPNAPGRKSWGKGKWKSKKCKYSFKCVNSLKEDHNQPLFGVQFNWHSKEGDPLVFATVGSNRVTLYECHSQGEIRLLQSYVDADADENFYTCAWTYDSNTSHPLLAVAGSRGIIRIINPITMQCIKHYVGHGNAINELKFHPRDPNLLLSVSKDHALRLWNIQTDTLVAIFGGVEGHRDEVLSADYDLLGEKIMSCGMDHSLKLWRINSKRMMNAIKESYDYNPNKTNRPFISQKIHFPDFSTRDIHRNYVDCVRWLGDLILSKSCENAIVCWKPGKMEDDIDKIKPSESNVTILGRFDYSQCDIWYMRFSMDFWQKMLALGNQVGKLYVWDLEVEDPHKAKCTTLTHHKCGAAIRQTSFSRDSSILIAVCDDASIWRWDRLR", "sequence (Q15022 whole entry partner)": "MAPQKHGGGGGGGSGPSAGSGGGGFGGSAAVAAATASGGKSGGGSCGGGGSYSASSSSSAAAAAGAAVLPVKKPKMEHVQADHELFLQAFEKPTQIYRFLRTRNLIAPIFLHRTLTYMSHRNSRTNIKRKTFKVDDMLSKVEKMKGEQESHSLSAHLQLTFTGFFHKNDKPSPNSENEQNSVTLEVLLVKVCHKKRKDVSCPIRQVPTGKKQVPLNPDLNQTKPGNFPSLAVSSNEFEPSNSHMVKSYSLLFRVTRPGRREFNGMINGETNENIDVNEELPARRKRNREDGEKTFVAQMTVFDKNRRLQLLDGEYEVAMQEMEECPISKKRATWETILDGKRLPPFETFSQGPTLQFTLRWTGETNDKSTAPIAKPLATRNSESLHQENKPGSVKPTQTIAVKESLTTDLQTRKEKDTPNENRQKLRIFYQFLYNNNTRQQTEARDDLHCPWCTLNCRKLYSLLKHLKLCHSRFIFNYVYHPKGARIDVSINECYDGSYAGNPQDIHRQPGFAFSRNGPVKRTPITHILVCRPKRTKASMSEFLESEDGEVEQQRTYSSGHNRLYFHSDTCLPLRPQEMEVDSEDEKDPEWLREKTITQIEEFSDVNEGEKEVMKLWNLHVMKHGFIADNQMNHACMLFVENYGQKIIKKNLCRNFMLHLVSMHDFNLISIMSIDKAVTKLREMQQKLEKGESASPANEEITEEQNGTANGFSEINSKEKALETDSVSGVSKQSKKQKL", "sequence (Q09028 whole entry partner)": "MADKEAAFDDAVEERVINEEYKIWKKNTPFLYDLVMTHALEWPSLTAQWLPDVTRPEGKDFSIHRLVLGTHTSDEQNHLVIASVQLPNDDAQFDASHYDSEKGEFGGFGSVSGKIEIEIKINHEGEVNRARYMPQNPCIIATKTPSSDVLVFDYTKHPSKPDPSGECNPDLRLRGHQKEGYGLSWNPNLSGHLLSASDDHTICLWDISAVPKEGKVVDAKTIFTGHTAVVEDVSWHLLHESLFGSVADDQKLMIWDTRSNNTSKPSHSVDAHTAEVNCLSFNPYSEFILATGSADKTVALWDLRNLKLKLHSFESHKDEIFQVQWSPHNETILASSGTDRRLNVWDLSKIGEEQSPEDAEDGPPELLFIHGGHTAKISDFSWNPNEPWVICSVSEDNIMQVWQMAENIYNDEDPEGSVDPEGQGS", "sequence (Q6ZN18 whole entry partner)": "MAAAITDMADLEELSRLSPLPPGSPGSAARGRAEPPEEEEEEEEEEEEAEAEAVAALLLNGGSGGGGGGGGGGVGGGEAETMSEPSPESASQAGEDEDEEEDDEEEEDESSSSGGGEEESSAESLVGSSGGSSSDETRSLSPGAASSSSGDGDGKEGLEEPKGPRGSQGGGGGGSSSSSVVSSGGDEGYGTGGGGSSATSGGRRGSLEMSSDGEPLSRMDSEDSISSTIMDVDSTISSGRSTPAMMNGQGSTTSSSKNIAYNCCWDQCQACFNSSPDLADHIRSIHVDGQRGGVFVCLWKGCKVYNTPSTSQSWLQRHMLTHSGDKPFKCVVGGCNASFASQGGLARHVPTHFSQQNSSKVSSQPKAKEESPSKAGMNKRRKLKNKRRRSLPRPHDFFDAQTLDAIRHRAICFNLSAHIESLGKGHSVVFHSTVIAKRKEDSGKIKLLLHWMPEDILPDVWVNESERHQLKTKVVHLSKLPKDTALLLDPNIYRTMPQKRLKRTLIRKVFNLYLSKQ", "assay": "Activity of a compound to PRC2 complex (EZH2 Y641F), HTRF", "details": "not given", "units": {"IC50": "nM"}, "values": [{"smiles": "COc1cc(C)[nH]c(=O)c1CNC(=O)c1cc2c(-c3cnc(C)nc3)ccn2c(C(C)N2CCN(CC(F)(F)F)CC2)c1C", "note": "(stereo not shown) [Compound 196, N-((4-methoxy-6-methyl-2-oxo-1,2-dihydropyridin-3-yl)methyl)-6-methyl-1-(2-methylpyrimidin-5-yl)-5-(1-(4-(2,2,2-trifluoroethyl)piperazin-1-yl)ethyl)indolizine-7-carboxamide]", "IC50": "< 100"}, {"smiles": "CCc1cc(-c2ccn3c(C(C)N4CCN(CC(F)(F)F)CC4)c(C)c(C(=O)NCc4c(OC)cc(C)[nH]c4=O)cc23)ccn1", "note": "(stereo not shown) [Compound 205, 1-(2-ethylpyridin-4-yl)-N-((4-methoxy-6-methyl-2-oxo-1,2-dihydropyridin-3-yl)methyl)-6-methyl-5-(1-(4-(2,2,2-trifluoroethyl)piperazin-1-yl)ethyl)indolizine-7-carboxamide]", "IC50": "< 100"}, {"smiles": "COc1cc(-c2cc3cc(C(=O)NCc4c(C)cc(C)[nH]c4=O)c(C)c(C(C)N4CCOCC4)n3c2)cc(OC)c1OC", "note": "(stereo not shown) [Example 37, N-((4,6-dimethyl-2-oxo-1,2-dihydropyridin-3-yl)methyl)-6-methyl-5-(1-morpholinylethyl)-2-(3,4,5-trimethoxyphenyl)indolizine-7-carboxamide]", "IC50": "< 100"}]}, {"target": "PRC2 complex (EZH2 Y641F/EED/SUZ12/RbAp48/AEBP2) (Homo sapiens (Human), UniProt Q15910, Y641F)", "assay": "Activity of a compound to PRC2 complex (EZH2 Y641F), HTRF", "details": "read-out: IC50 (EZH2_Y641F); EZH2 Y641F PRC2 complex, HTRF; class symbols", "units": {"IC50": "nM"}, "values": [{"smiles": "COc1cc(C)[nH]c(=O)c1CNC(=O)c1cc2c(-c3ccc(C)nn3)ccn2c(C(C)N2CCN(CC(F)(F)F)CC2)c1C", "note": "(stereo not shown) [Compound 199, N-((4-methoxy-6-methyl-2-oxo-1,2-dihydropyridin-3-yl)methyl)-6-methyl-1-(6-methylpyridazin-3-yl)-5-(1-(4-(2,2,2-trifluoroethyl)piperazin-1-yl)ethyl)indolizine-7-carboxamide]", "IC50": "< 100"}, {"smiles": "COc1cc(C)[nH]c(=O)c1CNC(=O)c1cc2c(-c3ccn[nH]3)ccn2c(N(C)C2CCN(CC(F)(F)F)CC2)c1C", "note": "[Compound 202, N-((4-methoxy-6-methyl-2-oxo-1,2-dihydropyridin-3-yl)methyl)-6-methyl-5-(methyl(1-(2,2,2-trifluoroethyl)piperidin-4-yl)amino)-1-(1H-pyrazol-5-yl)indolizine-7-carboxamide]", "IC50": "< 100"}, {"smiles": "CCN(c1c(C)c(C(=O)NCc2c(OC)cc(C)[nH]c2=O)cc2c(-c3ccnc(N(C)C)c3)ccn12)C1CCN(CC(F)(F)F)CC1", "note": "[Compound 203, 1-(2-(dimethylamino)pyridin-4-yl)-5-(ethyl(1-(2,2,2-trifluoroethyl)piperidin-4-yl)amino)-N-((4-methoxy-6-methyl-2-oxo-1,2-dihydropyridin-3-yl)methyl)-6-methylindolizine-7-carboxamide]", "IC50": "< 100"}, {"smiles": "CCN(c1c(C)c(C(=O)NCc2c(OC)cc(C)[nH]c2=O)cc2c(-c3ccnc(N(C)C)c3)ncn12)C1CCN(CC(F)(F)F)CC1", "note": "[Compound 204, 1-(2-(dimethylamino)pyridin-4-yl)-5-(ethyl(1-(2,2,2-trifluoroethyl)piperidin-4-yl)amino)-N-((4-methoxy-6-methyl-2-oxo-1,2-dihydropyridin-3-yl)methyl)-6-methylimidazo[1,5-a]pyridine-7-carboxamide]", "IC50": "< 100"}, {"smiles": "COc1cc(C)[nH]c(=O)c1CNC(=O)c1cc2c(-c3ccnc(C(C)C)c3)ccn2c(C(C)N2CCN(CC(F)(F)F)CC2)c1C", "note": "(stereo not shown) [Compound 206, 1-(2-isopropylpyridin-4-yl)-N-((4-methoxy-6-methyl-2-oxo-1,2-dihydropyridin-3-yl)methyl)-6-methyl-5-(1-(4-(2,2,2-trifluoroethyl)piperazin-1-yl)ethyl)indolizine-7-carboxamide]", "IC50": "< 100"}, {"smiles": "COc1cc(C)[nH]c(=O)c1CNC(=O)c1cc2c(-c3ccnc4c3CCN4)ccn2c(C(C)N2CCN(CC(F)(F)F)CC2)c1C", "note": "(stereo not shown) [Compound 207]", "IC50": "< 100"}, {"smiles": "COC(C)c1c(C)c(C(=O)NCc2c(C)cc(C)[nH]c2=O)cc2cccn12", "note": "(stereo not shown) [Example 1, N-((4,6-Dimethyl-2-oxo-1,2-dihydropyridin-3-yl)methyl)-5-(1-methoxyethyl)-6-methylindolizine-7-carboxamide]", "IC50": "100 to 1000"}, {"smiles": "CCOC(C)c1c(C)c(C(=O)NCc2c(C)cc(C)[nH]c2=O)cc2cccn12", "note": "(stereo not shown) [Example 2, N-((4,6-Dimethyl-2-oxo-1,2-dihydropyridin-3-yl)methyl)-5-(1-ethoxyethyl)-6-methylindolizine-7-carboxamide]", "IC50": "1000 to 10000"}, {"smiles": "C=CCOC(C)c1c(C)c(C(=O)NCc2c(C)cc(C)[nH]c2=O)cc2cccn12", "note": "(stereo not shown) [Example 3]", "IC50": "100 to 1000"}, {"smiles": "C=C(C)COC(C)c1c(C)c(C(=O)NCc2c(C)cc(C)[nH]c2=O)cc2cccn12", "note": "(stereo not shown) [Example 5, N-((4,6-Dimethyl-2-oxo-1,2-dihydropyridin-3-yl)methyl)-6-methyl-5-(1-((2-methylallyl)oxy)ethyl)indolizine-7-carboxamide]", "IC50": "100 to 1000"}, {"smiles": "Cc1cc(C)c(CNC(=O)c2cc3cccn3c(C(C)OCC(C)C)c2C)c(=O)[nH]1", "note": "(stereo not shown) [Example 6, N-((4,6-Dimethyl-2-oxo-1,2-dihydropyridin-3-yl)methyl)-5-(1-isobutyloxyethyl)-6-methylindolizine-7-carboxamide]", "IC50": "1000 to 10000"}, {"smiles": "Cc1cc(C)c(CNC(=O)c2cc3cccn3c(C(C)OC3C=CCCC3)c2C)c(=O)[nH]1", "note": "(stereo not shown) [Example 7, 5-((cyclohex-2-en-1-yloxy)ethyl)-N-((4,6-dimethyl-2-oxo-1,2-dihydropyridin-3-yl)methyl)-6-methylindolizine-7-carboxamide]", "IC50": "100 to 1000"}, {"smiles": "Cc1cc(C)c(CNC(=O)c2cc3cccn3c(C(C)OC3CCCCC3)c2C)c(=O)[nH]1", "note": "(stereo not shown) [Example 8, 5-(1-(cyclohexyloxy)ethyl)-N-((4,6-dimethyl-2-oxo-1,2-dihydropyridin-3-yl)methyl)-6-methylindolizine-7-carboxamide]", "IC50": "100 to 1000"}, {"smiles": "Cc1cc(C)c(CNC(=O)c2cc3cccn3c(C(C)OCc3ccccc3)c2C)c(=O)[nH]1", "note": "(stereo not shown) [Example 9, 5-(1-(benzyloxy)ethyl)-N-((4,6-dimethyl-2-oxo-1,2-dihydropyridin-3-yl)methyl)-6-methylindolizine-7-carboxamide]", "IC50": "100 to 1000"}, {"smiles": "Cc1cc(C)c(CNC(=O)c2cc3cccn3c(C(C)OCc3ccccn3)c2C)c(=O)[nH]1", "note": "(stereo not shown) [Example 15, N-((4,6-dimethyl-2-oxo-1,2-dihydropyridin-3-yl)methyl)-6-methyl-5-(1-(pyridine-2-ylmethoxy)ethyl)indolizine-7-carboxamide]", "IC50": "100 to 1000"}, {"smiles": "Cc1cc(C)c(CNC(=O)c2cc3cccn3c(C(C)OCc3ccncc3)c2C)c(=O)[nH]1", "note": "(stereo not shown) [Example 16, N-((4,6-dimethyl-2-oxo-1,2-dihydropyridin-3-yl)methyl)-6-methyl-5-(1-(pyridine-4-ylmethoxy)ethyl)indolizine-7-carboxamide]", "IC50": "100 to 1000"}, {"smiles": "Cc1cc(C)c(CNC(=O)c2cc3cccn3c(C(C)OCc3cccs3)c2C)c(=O)[nH]1", "note": "(stereo not shown) [Example 17, N-((4,6-dimethyl-2-oxo-1,2-dihydropyridin-3-yl)methyl)-6-methyl-5-(1-(thiophene-2-ylmethoxy)ethyl)indolizine-7-carboxamide]", "IC50": "< 100"}, {"smiles": "Cc1cc(C)c(CNC(=O)c2cc3cccn3c(C(C)OCc3ccnn3C)c2C)c(=O)[nH]1", "note": "(stereo not shown) [Example 21]", "IC50": "< 100"}, {"smiles": "Cc1cc(C)c(CNC(=O)c2cc3cccn3c(C(C)Oc3ccc(N(C)C)cc3)c2C)c(=O)[nH]1", "note": "(stereo not shown) [Example 22]", "IC50": "1000 to 10000"}, {"smiles": "Cc1cc(C)c(CNC(=O)c2cc3cccn3c(C(O)c3ccc(Br)cc3)c2C)c(=O)[nH]1", "note": "(stereo not shown) [Example 23, 5-((4-bromophenyl)(hydroxy)methyl)-N-((4,6-dimethyl-2-oxo-1,2-dihydropyridin-3-yl)methyl)-6-methylindolizine-7-carboxamide]", "IC50": "100 to 1000"}, {"smiles": "COC(c1ccc(Br)cc1)c1c(C)c(C(=O)NCc2c(C)cc(C)[nH]c2=O)cc2cccn12", "note": "(stereo not shown) [Example 24, 5-((4-bromophenyl)(methoxy)methyl)-N-((4,6-dimethyl-2-oxo-1,2-dihydropyridin-3-yl)methyl)-6-methylindolizine-7-carboxamide]", "IC50": "> 10000"}, {"smiles": "Cc1cc(C)c(CNC(=O)c2cc3c(Cl)ccn3c(C(C)N3CCOCC3)c2C)c(=O)[nH]1", "note": "(stereo not shown) [Example 27, 1-chloro-N-((4,6-dimethyl-2-oxo-1,2-dihydropyridin-3-yl)methyl)-6-methyl-5-(1-morphinolinylethyl)indolizine-7-carboxamide]", "IC50": "< 100"}, {"smiles": "Cc1cc(C)c(CNC(=O)c2cc3cc(Br)cn3c(C(C)Oc3ccc(N(C)C)cc3)c2C)c(=O)[nH]1", "note": "(stereo not shown) [Example 30]", "IC50": "< 100"}, {"smiles": "Cc1cc(C)c(CNC(=O)c2cc3cc(-c4ccc5c(c4)OCO5)cn3c(C(C)N3CCOCC3)c2C)c(=O)[nH]1", "note": "(stereo not shown) [Example 31, 2-(benzo[d][1,3]dioxol-5-yl)-N-((4,6-dimethyl-2-oxo-1,2-dihydropyridine-3-yl)methyl)-6-methyl-5-(1-morphinolinylethyl)indolizin-7-carboxamide]", "IC50": "100 to 1000"}, {"smiles": "Cc1cc(C)c(CNC(=O)c2cc3cc(-c4ccc(N5CCOCC5)cc4)cn3c(C(C)N3CCOCC3)c2C)c(=O)[nH]1", "note": "(stereo not shown) [Example 32, N-((4,6-dimethyl-2-oxo-1,2-dihydropyridin-3-yl)methyl)-6-methyl-5-(1-morphinolinylethyl)-2-(4-morphinolinylphenyl)indolizine-7-carboxamide]", "IC50": "< 100"}, {"smiles": "Cc1cc(C)c(CNC(=O)c2cc3cc(-c4cccnc4)cn3c(C(C)N3CCOCC3)c2C)c(=O)[nH]1", "note": "(stereo not shown) [Example 33, N-((4,6-dimethyl-2-oxo-1,2-dihydropyridin-3-yl)methyl)-6-methyl-5-(1-morphinolinylethyl)-2-(pyridin-3-yl)indolizine-7-carboxamide]", "IC50": "< 100"}, {"smiles": "Cc1cc(C)c(CNC(=O)c2cc3cc(-c4cccc(N5CCOCC5)c4)cn3c(C(C)N3CCOCC3)c2C)c(=O)[nH]1", "note": "(stereo not shown) [Example 36, N-((4,6-dimethyl-2-oxo-1,2-dihydropyridin-3-yl)methyl)-6-methyl-5-(1-morphinolinylethyl)-2-(3-morphinolinylphenyl)indolizine-7-carboxamide]", "IC50": "< 100"}, {"smiles": "COc1ccc(-c2cc3cc(C(=O)NCc4c(C)cc(C)[nH]c4=O)c(C)c(C(C)N4CCOCC4)n3c2)c(OC)c1", "note": "(stereo not shown) [Example 38, 2-(2,4-dimethoxyphenyl)-N-((4,6-dimethyl-2-oxo-1,2-dihydropyridin-3-yl)methyl)-6-methyl-5-(1-morphinolinylethyl)indolizine-7-carboxamide]", "IC50": "< 100"}]}]}
